One test deals with T1, wild-type EGFR (WT-EGFR) (Homo sapiens, UniProt P00533).
T1 construct: made in house; host or cells: SF9 insect cells (MultiBac)
Nature of the test: TR-FRET fluorescent probe displacement assay. It counts as binding. As to conditions: TR-FRET, n > 3. The protocol: Compounds (dissolved to 100 mM in DMSO) were dispensed into black low volume 384 well assay plates (Corning) over a final concentration range of 100,000, 30,000, 10,000, 3000, 1000, 300, 100, 30, 10, and 3 nM using an Echo 550 (Labcyte). Positive control compound and DMSO as a negative control were dispensed into the first and last well, respectively. Each well was backfilled with DMSO to a final volume of 200 nL, resulting in final assay DMSO concentrations of 1%. […] The data were analyzed using Graphpad Prism/Dotmatics Studies Software. Assays conducted in technical replicate and repeated as a biological duplicate.
Background: TR-FRET usually uses a lanthanide donor and a delayed reading to cut background.

The target in test [1] is recombinant doubly mutated EGFR L858R, T790M kinase domain (mLT-EGFR) (Homo sapiens, UniProt P00533, L858R/T790M). The experiment in a line: Kinetic analysis (AssayQuant). It counts as biochemical. The conditions noted are these: read-out: KI app. The protocol:
Measurement of K I, K inact and K inact/K I was carried out by AssayQuant Technologies inc.

The subject of test [2] is EGFR phosphorylation (Tyr1068) in H1975 (L858R, T790M) cells. The experiment in a line: HTRF cellular EGFR phosphorylation. It counts as cell-based. As to conditions: Homo sapiens, NCI-H1975; HTRF, mean ± SD of 4 experiments; read-out: H1975 pEGFR IC50. How it is done: Cells were plated at 20,000 cells per well in 96-well plates and placed at 37 °C with 5% CO2. Compounds were reconstituted in DMSO. Once adhered (after 24 h), cells were treated with compounds at a final concentration of 0.1% DMSO in media. Compounds were added to duplicate wells and incubated 37 °C for 3 h with 5% CO2. For A431 cells 0.5 h before the end of incubation; 100 ng/mL of EGF (Thermo Fisher, Cat. No. PHG0311) was added to all compound-treated cells as well as control. Compound and media were removed from the cells, and then 50 μL of HTRF lysis buffer was added (lysis buffer was diluted from 4× stock to 1× in deionized (DI) water, with 1% blocking agent also added). Cells were lysed on a plate shaker (2000 rpm) for 30 min at room temperature. pEGFR expression was assessed using the Human Phospho-EGFR (Tyr1068) cellular detection kit (Revvity, Cat. No. 64EG1PEH). Total EGFR expression was monitored using the Human Total EGFR cellular detection kit (Revvity, Cat. No. 64NG1PEH) as per the manufacturer’s instructions. […] Results were calculated as the ratio of pEGFR/total EGFR and then the percentage of 0 μM control.

In test [3] the test system is EGFR phosphorylation (Tyr1068) in A431 (WT-EGFR) cells. The experiment in a line: HTRF cellular EGFR phosphorylation. The format is cell-based. As to conditions: Homo sapiens, A-431, mean ± SD of 4 experiments, read-out: A431 pEGFR IC50. How it is done: Cells were plated at 20,000 cells per well in 96-well plates and placed at 37 °C with 5% CO2. Compounds were reconstituted in DMSO. Once adhered (after 24 h), cells were treated with compounds at a final concentration of 0.1% DMSO in media. Compounds were added to duplicate wells and incubated 37 °C for 3 h with 5% CO2. For A431 cells 0.5 h before the end of incubation; 100 ng/mL of EGF (Thermo Fisher, Cat. No. PHG0311) was added to all compound-treated cells as well as control. Compound and media were removed from the cells, and then 50 μL of HTRF lysis buffer was added (lysis buffer was diluted from 4× stock to 1× in deionized (DI) water, with 1% blocking agent also added). Cells were lysed on a plate shaker (2000 rpm) for 30 min at room temperature. pEGFR expression was assessed using the Human Phospho-EGFR (Tyr1068) cellular detection kit (Revvity, Cat. No. 64EG1PEH). Total EGFR expression was monitored using the Human Total EGFR cellular detection kit (Revvity, Cat. No. 64NG1PEH) as per the manufacturer’s instructions. Fluorescence emission was read at two different wavelengths (665 and 620 nm) on a PHERAstar microplate reader (BMG Labtech). Results were calculated as the ratio of pEGFR/total EGFR and then the percentage of 0 μM control.

In test [4] the test system is EGFR phosphorylation (Tyr1068) in H1975 (L858R, T790M) cells. The experiment in a line: Western blot of EGFR phosphorylation. It counts as cell-based. The conditions noted are these: H1975, 4 h exposure. For orientation: A western blot detects proteins with antibodies after separation by electrophoresis.
Description: Cells, seeded on the previous day, were incubated with test compound at the indicated concentrations or DMSO (0.1%) for 4 h. […] Preparation of lysates and Western blotting was performed twice as independent experiments.
Samples were prepared by diluting lysates in PBS to the desired concentration and before adding 4X XT sample buffer. Samples were then denatured at 98 °C for 5 min and then centrifuged to remove the residue. […] The quality of transfer was assessed using Ponceau S Stain (Sigma-Aldrich Cat. No. p7170).
Loading control antibodies were prepared in 5% milk w/v with 1× TBS/T (0.1 v/v) solution at a determined optimum concentration.
Proteins were detected using Clarity ECL substrate (Bio-Rad) and imaged using a Licor Odyssey FC.
The subject of test [5] is BaF3 EGFR L858R/T790M cells. Nature of the test: Ba/F3 growth inhibition (CellTiter Glo). The format is cell-based, Murine. As to conditions: BaF3, absence of IL-3, 72 h, read-out: LT: L858R/T790M GI50. How it is done: (§1) Growth inhibition in Ba/F3 cell lines were assessed in a 384-well format by CellTiter Glo assay (Promega) using the manufacturer’s recommended protocol. Cells were seeded on the day of compound addition and assessed following 72 h incubation including a vehicle only control. Ba/F3 EGFR-WT cells required supplementation with EGF (100 ng/mL, ThermoFisher, Cat No. PHG0311).

For test [6], the system named is BaF3 EGFR L858R/T790M/C775A cells. The experiment in a line: Ba/F3 growth inhibition (CellTiter Glo). The format is cell-based, Murine. The conditions noted are these: Mus musculus, BaF3, absence of IL-3, 72 h, read-out: LTC2: L858R/T790M/C775A GI50. How it is done:
as §1
On the technique in general: Cellular ATP, detected with luciferase, serves as a proxy for viable cell number.

A further test relates to BaF3 EGFR WT cells. Nature of the test: Ba/F3 growth inhibition (CellTiter Glo). The format is cell-based, Murine. As to conditions: Mus musculus, 72 h. How it is done: as §1
In test [7] the test system is BaF3 EGFR del19/T790M cells. Nature of the test: Ba/F3 growth inhibition (CellTiter Glo). It counts as cell-based, Murine. As to conditions: Mus musculus, BaF3, absence of IL-3, 72 h, read-out: dT: del19/T790M GI50. How it is done: as §1

Results on one compound are retold here after publication PMC12794186, “Covalent Alkynylpyridopyrimidinones Targeting Cysteine 775 of the Epidermal Growth Factor Receptor Overcome Resistance to Current Therapies” (Journal of Medicinal Chemistry, 2025).

Read-outs that look alike come from different tables or passages of the source. Some results are limits rather than exact numbers.

T1 sequence (P00533 696-1022 limits assumed): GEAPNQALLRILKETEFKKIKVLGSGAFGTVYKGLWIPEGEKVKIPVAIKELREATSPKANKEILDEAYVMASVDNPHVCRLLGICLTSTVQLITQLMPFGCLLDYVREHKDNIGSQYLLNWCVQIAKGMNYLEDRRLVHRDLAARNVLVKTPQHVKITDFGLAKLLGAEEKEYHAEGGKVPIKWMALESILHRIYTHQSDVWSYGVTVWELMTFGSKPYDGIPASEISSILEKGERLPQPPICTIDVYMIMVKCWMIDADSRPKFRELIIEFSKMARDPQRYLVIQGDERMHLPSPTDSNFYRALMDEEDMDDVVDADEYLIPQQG
Sequence of recombinant doubly mutated EGFR L858R, T790M kinase domain (mLT-EGFR) (P00533 712-979 T790M/L858R limits assumed): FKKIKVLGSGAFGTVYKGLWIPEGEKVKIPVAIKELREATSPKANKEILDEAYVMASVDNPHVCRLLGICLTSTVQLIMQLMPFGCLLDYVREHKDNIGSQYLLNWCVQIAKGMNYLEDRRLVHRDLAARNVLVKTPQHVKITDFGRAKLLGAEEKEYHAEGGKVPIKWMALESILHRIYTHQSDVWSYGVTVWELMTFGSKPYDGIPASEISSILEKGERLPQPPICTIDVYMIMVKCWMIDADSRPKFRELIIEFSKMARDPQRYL

Take `C#Cc1cc(=O)n(-c2ccccc2)c2nc(Nc3ccc(N(C)CCN(C)C)cc3)ncc12` [Compound 7, 2-((4-((2-(Dimethylamino)ethyl)(methyl)amino)phenyl)amino)-5-ethynyl-8-phenylpyrido[2,3-d]pyrimidin-7(8H)-one]: the IC50 at wild-type EGFR (WT-EGFR) (read-out: WT-EGFR IC50) was 200 nM; on wild-type EGFR (WT-EGFR) (read-out: WT-EGFR pIC50 ± std dev (converted)), 200 nM; in [2] it was 140 ± 21 nM; in test [3] it was 4100 nM. In addition, the Ki in [1] was determined as 22 ± 1.3 nM. For the same compound, in test [4], the “concentration eliciting dose-dependent reduction in EGFR phosphorylation (Western blot)” value is listed as ≥ 100 nM. Moreover, the GI50 in test [5] was < 100 nM; in [5] (Mus musculus, Ba/F3 EGFR, 72 h) it was 50 ± 3.2 nM; in test [6], 1500 nM; in the test on BaF3 EGFR WT cells, 1100 nM; in [7] it was 49 ± 6 nM.
